25 compounds from patent US8338599B2, “Compounds having a potentiating effect on the activity of ethionamide and uses thereof” (priority 2006, dated 2012) can be followed below.

In general, inhibition refers to the change of the read-out against control, counted positive when it falls. A low value points to a response near the control. Usually solubility stands for the dissolved amount per volume that the medium holds. Broadly, the IC50 is the concentration needed to halve the response being measured.

Values after ≈ are worked out from the molar mass of the structure shown.

For data set [1], the target named is T1, EthR protein (Mycobacterium tuberculosis, UniProt P9WMC1). Put plainly: Inhibition of interaction of EthR with its target DNA sequence (BIAcore). Conditions: compound 3 μM, EthR 540 nM, 37° C. The data set is classed as binding, M. tuberculosis H37Rv. Here is the method: a) Measurement of the Activity of the Compounds on the Inhibition of Interaction of EthR with its Target DNA Sequence
T1 sequence (P9WMC1 whole entry, looked up): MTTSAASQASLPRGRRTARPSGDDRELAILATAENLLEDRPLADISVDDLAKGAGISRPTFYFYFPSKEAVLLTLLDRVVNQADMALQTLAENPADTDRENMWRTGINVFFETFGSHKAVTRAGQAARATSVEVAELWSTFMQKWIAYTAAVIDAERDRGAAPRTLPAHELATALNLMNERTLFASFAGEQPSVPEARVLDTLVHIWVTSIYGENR
The in vitro measurements of inhibition of binding of the EthR protein to its target DNA sequence were performed on a machine of BIAcore®2000 type (AB, Uppsala, Sweden).
The chips used are CM5 chips sold by the company GE Healthcare. Both the channels of a chip were activated with a solution containing 200 mM of EDC(N-ethyl-N′-(3-[…])carbodiimide) and 50 mM of NHS (N-hydroxysuccinimide). Next, streptavidin (500 ng/μl in a solution containing 10 mM of sodium acetate (pH 3.5) was injected over 12 minutes at a flow rate of 10 μl/minute. The 106-base-pair biotinylated DNA fragment corresponding to the ethA-R intergene region was deposited on one of the two channels of the chip at a rate of 200 ng/ml in order to obtain stable binding of streptavidin corresponding to 50 RU (resonance units). This DNA fragment was obtained by PCR using the chromosomal DNA of M. tuberculosis H37Rv as matrix and O-270: 5′-[…]-3′ (SEQ ID: No. 1) and O-271: 5′-biotin-[…]-3′ (SEQ ID: No. 2). The second channel was functionalized with a 113-base-pair biotinylated DNA fragment (fragment +14 to +127 of the bla gene of E. coli PCR-amplified using the following oligonucleotides: O-343: 5′-[…]-3′ (SEQ ID: No. 3) and O-344: 5′-biotin-[…]-3′ (SEQ ID: No. 4).
Measurement of the binding of the EthR protein to the immobilized DNA was performed at 37° C. in a reference buffer containing 10 mM of Tris-HCl (pH=7.5), 200 mM of NaCl, 0.1 mM of EDTA, 1 mM of DTT and 1% of DMSO at a flow rate of 20 μl/minute. The specific interaction (SI) of EthR with the 106-base-pair double-stranded DNA sequence, expressed in resonance units, corresponds to the difference in signal observed between the two channels.
For each inhibition measurement, the compounds of the invention are dissolved in the reference buffer at a concentration of 3 μM. The compounds of the invention are then incubated in the presence of the protein (540 nM) at 37° C. for 5 minutes, and each solution is then injected onto the two channels of the chip for 3 minutes at a flow rate of 20 μl/minute. The inhibition values are calculated at the end of the injection according to the following equation: […]
in which SIEthR corresponds to the value measured without ligand and SIEthR+ligand corresponds to the value measured in the presence of to ligand.

Another data set concerns M. bovis BCG. It counts as cell-based, M. bovis BCG 1173P2. Conditions: from MIC of ETH alone (6 μM) and MIC of ETH with 25 μM compound.
Data set [2] can be described thus: Measurement of the solubility (PBS pH 7.4 vs methanol, LC/MS). The data set is classed as physicochemical. Conditions: pH 7.4, aqueous buffer, kinetic from dmso stock. The method, then: e) Measurement of the Solubility of the Compounds of the Invention
40 μl of a solution containing a compound of the invention at a concentration of 10 mM in DMSO were diluted in 1.960 ml of methanol, and another 40 μl were diluted in 1.960 ml of a PBS solution containing 675 mM of NaCl, 13.5 mM of KCl, 50 mM of Na2HPO4.2H2O and 10 mM of KH2PO4 at a pH of 7.4. The two solutions were stirred for 24 hours at room temperature, and then centrifuged for 5 minutes and filtered through 0.45 μm filters. 20 μl of each solution were then diluted in 118 μl of methanol and analyzed by liquid chromatography coupled to mass spectrometry (LC/MS). The solubility was determined by the ratio of the areas under the curve of the mass signal for the compound of the invention, according to the following equation: […]

The target in data set [3] is T1, EthR protein. Nature of the data set: In vitro measurement of the IC50 (EthR/DNA binding, BIAcore). Also noted: species or system M. tuberculosis H37Rv. As to conditions: six concentrations from 0.11 μM to 27 μM; read-out: IC50. Here is the method:
b) In Vitro Measurement of the IC50 of the Compounds of the Invention.
The in vitro measurement of this datum was performed according to the same principle as for the measurement of inhibition of the EthR/DNA binding using the BIAcore technique.
The specific interaction between EthR and the specific 106-bp DNA fragment was measured on a range of six concentrations of the compounds of the invention, this range extending from 0.11 μM to 27 μM. The IC50 values are then extrapolated from the sigmoid curves obtained.
(SPR reads the build-up and loss of mass on a sensor chip optically.)

In turn, `[N-]=[N+]=NCC(=O)N1CCC(c2nc(-c3ccsc3)no2)CC1` [Compound 3, 2-azido-1-[4-(3-thiophen-3-yl[1,2,4]oxadiazol-5-yl)piperid-1-yl]ethanone] gave an inhibition at 3 µM against EthR protein [1] of 14%. Also, in the data set with M. bovis BCG, the Potentiation % came to 500%.

With `[N-]=[N+]=NCC(=O)N1CCC(c2nc(-c3ccccc3)no2)CC1` [Compound 4, 2-azido-1-[4-(3-phenyl[1,2,4]oxadiazol-5-yl)piperid-1-yl]ethanone], testing at 3 µM on EthR protein [1] gave an inhibition of 15%. Also, the Potentiation % in the data set with M. bovis BCG is given as 500%.

As for `[N-]=[N+]=NCC(=O)N1CCC(c2nc(-c3ccc(F)cc3)no2)CC1` [Compound 5, 2-azido-1-{4-[3-(4-fluorophenyl)[1,2,4]oxadiazol-5-yl]piperid-1-yl}ethanone], the inhibition at 3 µM on EthR protein [1] was found to be 15%. Besides, the solubility at 24 h in data set [2] was 9 µg/mL (≈ 27.2 µM).

At EthR protein [1], `[N-]=[N+]=NCC(=O)N1CCC(c2nc(-c3ccc4c(c3)OCO4)no2)CC1` [Compound 12, 2-azido-1-[4-(3-benzo[1,3]dioxol-5-yl[1,2,4]oxadiazol-5-yl)piperid-1-yl]ethanone] returned an inhibition at 3 µM of 19%. In data set [2], this compound registered a solubility at 24 h of 71 µg/mL (≈ 199 µM).

On EthR protein [1], `COc1ccc2nc(-c3noc(C4CCN(C(=O)CN=[N+]=[N-])CC4)n3)sc2c1` [Compound 15] showed an inhibition at 3 µM of 94%. Besides, on EthR protein [3], the IC50 worked out at 1560 nM.

For the compound `CC(=O)N1CCC(c2nc(-c3cccs3)no2)CC1` [Compound 17, 1-[4-(3-thiophen-2-yl[1,2,4]oxadiazol-5-yl)piperid-1-yl]ethanone], the solubility at 24 h in data set [2] came to 55.5 µg/mL (≈ 200 µM).

On EthR protein [1], `C#CCCC(=O)N1CCC(c2nc(-c3cccs3)no2)CC1` [Compound 21, 1-[4-(3-thiophen-2-yl[1,2,4]oxadiazol-5-yl)piperid-1-yl]pent-4-yn-1-one] returned an inhibition at 3 µM of 20%. The Potentiation % in the data set with M. bovis BCG was 500%.

The compound `CC(C)CCC(=O)N1CCC(c2nc(-c3cccs3)no2)CC1` [Compound 25, 4-methyl-1-[4-(3-thiophen-2-yl[1,2,4]oxadiazol-5-yl)piperid-1-yl]pentan-1-one] yielded an inhibition at 3 µM at EthR protein [1] of 70%. In addition, on EthR protein [3], the IC50 stood at 910 nM. Besides, the Potentiation % in the data set on M. bovis BCG worked out at 500%.

Regarding `O=C(CCC(F)(F)F)N1CCC(c2nc(-c3cccs3)no2)CC1` [Compound 27, 4,4,4-trifluoro-1-[4-(3-thiophen-2-yl[1,2,4]oxadiazol-5-yl)piperid-1-yl]butan-1-one], 3 µM produced 96% inhibition on EthR protein [1]. On EthR protein [3], the IC50 came to 1570 nM. Besides, in the data set on M. bovis BCG, the Potentiation % stood at 500%.

Take `COCC(=O)N1CCC(c2nc(-c3cccs3)no2)CC1` [Compound 28, 2-methoxy-1-[4-(3-thiophen-2-yl[1,2,4]oxadiazol-5-yl)piperid-1-yl]ethanone]: the solubility at 24 h in data set [2] was 61.5 µg/mL (≈ 200 µM).

For the compound `O=C(O)CCC(=O)N1CCC(c2nc(-c3cccs3)no2)CC1` [Compound 31, 4-oxo-4-[4-(3-thiophen-2-yl[1,2,4]oxadiazol-5-yl)piperid-1-yl]butyric acid], the solubility at 24 h in data set [2] came out at 67.1 µg/mL (≈ 200 µM).

On to `O=C(CCC1CCCC1)N1CCC(c2nc(-c3cccs3)no2)CC1` [Compound 34, 3-cyclopentyl-1-[4-(3-thiophen-2-yl[1,2,4]oxadiazol-5-yl)piperid-1-yl]propan-1-one], for which the inhibition at 3 µM on EthR protein [1] is 48%.

In turn, `O=C(CC1CCCC1)N1CCC(c2nc(-c3cccs3)no2)CC1` [Compound 35, 2-cyclopentyl-1-[4-(3-thiophen-2-yl[1,2,4]oxadiazol-5-yl)piperid-1-yl]ethanone] came in with an inhibition at 3 µM against EthR protein [1] of 52%. Also, the IC50 on EthR protein [3] amounted to 1490 nM. The Potentiation % in the data set on M. bovis BCG was 2500%.

`O=C(CC1C=CCC1)N1CCC(c2nc(-c3cccs3)no2)CC1` (stereo not drawn) [Compound 36, 2-cyclopent-2-enyl-1-[4-(3-thiophen-2-yl[1,2,4]oxadiazol-5-yl)piperid-1-yl]-ethanone]: at 3 µM the inhibition at EthR protein [1] was 78%. Besides, the IC50 on EthR protein [3] amounted to 1000 nM. The Potentiation % with M. bovis BCG amounted to 500%.

Turning to `O=C(CC1CCCCC1)N1CCC(c2nc(-c3cccs3)no2)CC1` [Compound 37, 2-cyclohexyl-1-[4-(3-thiophen-2-yl[1,2,4]oxadiazol-5-yl)piperid-1-yl]ethanone], 3 µM produced 76% inhibition against EthR protein [1]. Further, at EthR protein [3], the IC50 stood at 3490 nM.

At EthR protein [1], `O=C(CC1CC2CCC1C2)N1CCC(c2nc(-c3cccs3)no2)CC1` (stereo not drawn) [Compound 40, 2-bicyclo[2.2.1]hept-2-yl-1-[4-(3-thiophen-2-yl[1,2,4]oxadiazol-5-yl)piperid-1-yl]ethanone] gave an inhibition at 3 µM of 59%.

As for `O=C(Cc1ccccc1)N1CCC(c2nc(-c3cccs3)no2)CC1` [Compound 41, 2-phenyl-1-[4-(3-thiophen-2-yl[1,2,4]oxadiazol-5-yl)piperid-1-yl]ethanone], the inhibition at 3 µM against EthR protein [1] stood at 45%.

Take `O=C(COc1ccccc1)N1CCC(c2nc(-c3cccs3)no2)CC1` [Compound 45, 2-phenoxy-1-[4-(3-thiophen-2-yl[1,2,4]oxadiazol-5-yl)piperid-1-yl]ethanone]: at EthR protein [1], the inhibition at 3 µM came out at 75%. For the same compound, the IC50 on EthR protein [3] was found to be 1500 nM. For the same compound, the Potentiation % in the data set on M. bovis BCG was 2500%.

For the compound `S=C(Nc1ccccc1)N1CCC(c2nc(-c3cccs3)no2)CC1` [Compound 49, 4-(3-thiophen-2-yl[1,2,4]oxadiazol-5-yl)piperidine-1-carbothioic acid phenylamide], the inhibition at 3 µM on EthR protein [1] was found to be 86%. For the same compound, at EthR protein [3], the IC50 worked out at 1340 nM.

At EthR protein [1], `O=C(NC1CC1)N1CCC(c2nc(-c3cccs3)no2)CC1` [Compound 51, 4-(3-thiophen-2-yl[1,2,4]oxadiazol-5-yl)piperidine-1-carboxylic acid cyclopropylamide] showed an inhibition at 3 µM of 13%. Also, the solubility at 24 h in data set [2] is 272 µg/mL (≈ 853 µM).

`S=C(NC1CC1)N1CCC(c2nc(-c3cccs3)no2)CC1` [Compound 52, 4-(3-thiophen-2-yl[1,2,4]oxadiazol-5-yl)piperidine-1-carbothioic acid cyclopropylamide] came in with an inhibition at 3 µM against EthR protein [1] of 61%.

At EthR protein [1], `O=S(=O)(Cc1ccccc1)N1CCC(c2nc(-c3cccs3)no2)CC1` [Compound 53, 1-phenylmethanesulfonyl-4-(3-thiophen-2-yl[1,2,4]oxadiazol-5-yl)piperidine] gave an inhibition at 3 µM of 34%.

For the compound `O=C(CC1CC1)N1CCC(c2nc(-c3cccc(N(Cc4ccccc4)Cc4ccccc4)c3)no2)CC1` [Compound 57, 2-cyclopropyl-1-{4-[3-(3-dibenzylaminophenyl)[1,2,4]oxadiazol-5-yl]piperid-1-yl}ethanone], at 3 µM the inhibition at EthR protein [1] was 46%.

As for `O=C(Cc1cccs1)N1CCC(c2nc(-c3ccc(Br)s3)no2)CC1` [Compound 58, 1-{4-[3-(5-bromothiophen-2-yl)[1,2,4]oxadiazol-5-yl]piperid-1-yl}-2-thiophen-2-ylethanone], at EthR protein [1], 3 µM produced 34% inhibition.

`N#CCC(=O)N1CCC(c2nc(-c3ccc(Br)s3)no2)CC1` [Compound 59, 3-{4-[3-(5-bromothiophen-2-yl)[1,2,4]oxadiazol-5-yl]piperid-1-yl}-3-oxo-propionitrile] gave an inhibition at 3 µM on EthR protein [1] of 77%. The half-inhibitory concentration (IC50) at EthR protein [3] was found to be 390 nM.
